Where only a bound is given, the exact number is not on record here.

T1 sequence (F4Y5P9 entry or part of it): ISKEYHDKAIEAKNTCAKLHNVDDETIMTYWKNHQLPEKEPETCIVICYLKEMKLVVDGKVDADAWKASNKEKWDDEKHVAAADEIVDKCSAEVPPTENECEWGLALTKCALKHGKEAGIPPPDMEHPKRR

The first assay concerns the target T1, recombinant AlinOBP11 (Adelphocoris lineolatus, UniProt F4Y5P9). Kind of assay: biochemical. The format is binding.
Settings: not given
As to `CCCCCCO` [1-Hexanol], the IC50 was above 30 µM.
The same measure, in the same setting: the value for `CCCCC(C)=O` [2-Hexanone] was above 30 µM; that for `CC(=O)CCC=C(C)C` [6-Methyl-5-hepten-2-one] was above 30 µM; that for `CC(=O)c1ccccc1` [Acetophenone] was above 30 µM.
Still for that read-out and setting: with `O=Cc1ccccc1` [Benzaldehyde] the figure was above 30 µM.
Regarding `CCCC(=O)OCC` [Ethyl butyrate], the IC50 is above 30 µM.
Regarding `Cc1cc2c(C(C)C)c(O)c(O)c(C=O)c2c(O)c1-c1c(C)cc2c(C(C)C)c(O)c(O)c(C=O)c2c1O` [Gossypol], the half-maximal inhibitory concentration (IC50) turned out to be 4.45 ± 0.34 µM and the inhibition constant Ki was determined as 3.43 ± 0.32 µM.
As to `CCCCCCC=O` [Heptanal], the 50% inhibitory concentration (IC50) was above 30 µM.
Still for that read-out and setting: the value for `CCCCCC=O` [Hexanal] was above 30 µM; that for `c1ccc2[nH]ccc2c1` [Indole] was above 30 µM; that for `COC(=O)c1ccccc1O` [Methyl salicylate] was above 30 µM.
Same read-out and setting: the value for `CC/C=C\CCO` [cis-3-Hexen-1-ol] was above 30 µM; that for `CCC/C=C/C=O` [trans-2-Hexenal] was above 30 µM.
In the case of `CC1=CC[C@H](C(C)C)C=C1` [α-Phellandrene], the IC50 turned out to be 26.2 ± 0.52 µM and the Ki is 20.1 ± 0.41 µM.
Take `C=C1CC/C=C(\C)CC[C@@H]2[C@@H]1CC2(C)C` [β-Caryophyllene]: the IC50 was above 30 µM.
Turning to `CC(=O)/C=C/C1=C(C)CCCC1(C)C` [β-Ionone], the IC50 is above 30 µM.
The same measure, in the same setting: the value for `C=C1CCC2CC1C2(C)C` (stereo not drawn) [β-Pinene] was above 30 µM.

Staying with this assay, now noted: 2 μM protein, 2 μM 1-NPN, 50 mM Tris-HCl pH 7.4, competitor 2 to 30 μM, 25°C; read-out: IC50 (μM) AlinOBP11.
Consider `C=CC(C)(O)CCC=C(C)CCC=C(C)C` (mixture of isomers) [Nerolidol], for which the IC50 stood at 27.2 ± 0.71 µM.
For the compound `CCCCCC(C)=O` [2-Heptanone], the IC50 is above 30 µM.
The same measure, in the same setting: the value for `CCCCC(C)O` (stereo not shown) [2-Hexanol] was above 30 µM.
Still for that read-out and setting: the value for `CCCCCCC(C)=O` [2-Octanone] was above 30 µM; that for `Cc1ccc(C=O)cc1C` [3,4-Dimethyl-benzaldehyde] was above 30 µM.
Same read-out and setting: with `CCCC(=O)CC` [3-Hexanone] the figure was above 30 µM; with `Oc1cc(O)c2c(c1)O[C@@H](c1ccc(O)c(O)c1)[C@H](O)C2` [(−)-Catechin], 19.3 ± 0.93 µM; with `CCCCCOC(C)=O` [Amyl acetate], above 30 µM.
For the compound `CCCCOC(=O)CCC` [Butyl butyrate], the IC50 was above 30 µM.
As for `C=C/C(C)=C/CC=C(C)C` [E-β-Ocimene], the concentration for half-maximal inhibition (IC50) was above 30 µM.
The same measure, in the same setting: the value for `CCCCCCOC(=O)CCC` [Hexyl butyrate] was above 30 µM; that for `CCCCCCOC(=O)CCCCC` [Hexyl hexanoate] was above 30 µM; that for `C=C(C)[C@H]1CC=C(C)CC1` [Limonene] was above 30 µM.
The same measure, in the same setting: the value for `C=CC(=C)CCC=C(C)C` [Myrcene] was above 30 µM; that for `CCCCCCCCC=O` [Nonanal] was above 30 µM; that for `CCCCCCCCCOC(C)=O` [Nonyl acetate] was above 30 µM.
For `CCCCCCCC=O` [Octanal], the half-maximal inhibitory concentration (IC50) was above 30 µM.
Still for that read-out and setting: with `CCCCCO` [Pentanol] the figure was above 30 µM.
On to `C[C@@H]1O[C@@H](OC[C@H]2O[C@@H](Oc3c(-c4ccc(O)c(O)c4)oc4cc(O)cc(O)c4c3=O)[C@H](O)[C@@H](O)[C@@H]2O)[C@H](O)[C@H](O)[C@H]1O.O` [Rutin hydrate], for which the IC50 came to 9.89 ± 1.61 µM.
The same measure, in the same setting: with `CCCCCCCCCCC` [Undecane] the figure was above 30 µM; with `CCCCC=O` [Valeraldehyde], above 30 µM; with `CC/C=C\CCOC(C)=O` [cis-3-hexenyl acetate], above 30 µM.
On the same count and under the same terms, with `CC(C)=CCC/C(C)=C/CC/C(C)=C/CO` [trans,trans-Farnesol] the figure was 25.2 ± 2.36 µM; with `CCC/C=C/COC(=O)CCC` [trans-2-hexenyl butyrate], above 30 µM; with `C=CC(=C)CC/C=C(\C)CCC=C(C)C` [trans-β-Farnesene], above 30 µM.
Turning to `C/C1=C\CC/C(C)=C/CC(C)(C)/C=C/C1` [α-Humulene], the IC50 is above 30 µM.
Turning to (+)-α-Pinene, the half-maximal inhibitory concentration (IC50) was above 30 µM.

Staying with this assay, now noted: […]; 2 μM protein, 2 μM 1-NPN, pH 7.4; read-out: Ki (μM) AlinOBP11.
In the case of `Oc1cc(O)c2c(c1)O[C@@H](c1ccc(O)c(O)c1)[C@H](O)C2` [(−)-Catechin], the Ki was determined as 15.3 ± 0.7 µM.

The assay is the same for the next values; noted with them: calculated from IC50: Ki = [IC50]/(1+[1-NPN]/K1-NPN); 2 μM protein, 2 μM 1-NPN, pH 7.4; read-out: Ki (μM) AlinOBP11.
Turning to `C=CC(C)(O)CCC=C(C)CCC=C(C)C` (mixture of isomers) [Nerolidol], the inhibition constant Ki was 20.8 ± 0.55 µM.
For `C[C@@H]1O[C@@H](OC[C@H]2O[C@@H](Oc3c(-c4ccc(O)c(O)c4)oc4cc(O)cc(O)c4c3=O)[C@H](O)[C@@H](O)[C@@H]2O)[C@H](O)[C@H](O)[C@H]1O.O` [Rutin hydrate], the inhibition constant Ki was 7.78 ± 1.23 µM.
Same read-out and setting: the value for `CC(C)=CCC/C(C)=C/CC/C(C)=C/CO` [trans,trans-Farnesol] was 19.3 ± 1.78 µM.

The next assay has as its target T1, recombinant AlinOBP11. Kind of assay: Binding of fluorescent probe 1-NPN to recombinant AlinOBP11 (fluorescence titration, Scatchard plot). The settings on record: 2 μM protein in 50 mM Tris-HCl pH 7.4, 1-NPN 1 to 16 μM; read-out: dissociation constant of the AlinOBP11/1-NPN complex.
`c1ccc(Nc2cccc3ccccc23)cc1` [1-NPN, N-phenyl-1-naphthylamine]: the Kd worked out at 5.86 ± 0.47 µM.

A further assay relates to AlucOBP36.
Test: not given
More on the design: method as in Hua et al., 2012. Particulars: antennae expressed AlucOBP36; ref Hua et al., 2012; cited from earlier work.
As for `C[C@@H]1O[C@@H](OC[C@H]2O[C@@H](Oc3c(-c4ccc(O)c(O)c4)oc4cc(O)cc(O)c4c3=O)[C@H](O)[C@@H](O)[C@@H]2O)[C@H](O)[C@H](O)[C@H]1O.O` [Rutin hydrate], the “binding abilities to AlucOBP36 (in words)” value is on record as “better binding abilities”.

The values are drawn from PMC4887496, “The Mouthparts Enriched Odorant Binding Protein 11 of the Alfalfa Plant Bug Adelphocoris lineolatus Displays a Preferential Binding Behavior to Host Plant Secondary Metabolites” (Frontiers in Physiology, 2016).
